This assay concerns MV-4-11 cells. Put plainly: Gene expression microarray analysis (Affymetrix PrimeView) and GSEA. Format: cell-based, human. Also on record: RFU PODN (11730768_x_at) / Fold change /veh PODN (11730768_x_at) / RFU LINC00158 (11744669_a_at) / Fold change /veh LINC00158 (11744669_a_at) / RFU DUSP10 (11751237_a_at) / Fold change /veh DUSP10 (11751237_a_at) / RFU ID3 (11757404_x_at) / Fold change /veh ID3 (11757404_x_at) / RFU PLEKHG5 (11737974_s_at) / Fold change /veh PLEKHG5 (11737974_s_at) / RFU LRRC4B (11730491_at) / Fold change /veh LRRC4B (11730491_at) / RFU GIMAP4 (11747438_a_at) / Fold change /veh GIMAP4 (11747438_a_at) / RFU KRT8 (11758183_x_at) / Fold change /veh KRT8 (11758183_x_at) / RFU CNN1 (11734310_a_at) / Fold change /veh CNN1 (11734310_a_at) / RFU VPS37D (11726825_at) / Fold change /veh VPS37D (11726825_at) / RFU C10orf10 (11716522_x_at) / Fold change /veh C10orf10 (11716522_x_at) / RFU KIR2DL2 /// KIR2DL4 /// KIR2DL5A /// KIR2DL5B /// KIR2DS1 /// KIR2DS2 /// KIR2DS3 /// KIR2DS4 /// KIR3DL3 /// KIR3DL3 /// KIR3DS1 (11738374_at) / Fold change /veh KIR2DL2 /// KIR2DL4 /// KIR2DL5A /// KIR2DL5B /// KIR2DS1 /// KIR2DS2 /// KIR2DS3 /// KIR2DS4 /// KIR3DL3 /// KIR3DL3 /// KIR3DS1 (11738374_at) / RFU C1QL1 (11718748_at) / Fold change /veh C1QL1 (11718748_at) / RFU TMPRSS4 (11747572_a_at) / Fold change /veh TMPRSS4 (11747572_a_at) / RFU HAMP (11756126_x_at) / Fold change /veh HAMP (11756126_x_at) / RFU RNFT2 (11725882_a_at) / Fold change /veh RNFT2 (11725882_a_at) / RFU NR4A2 (11747474_a_at) / Fold change /veh NR4A2 (11747474_a_at) / RFU ABCC12 (11746883_a_at) / Fold change /veh ABCC12 (11746883_a_at) / RFU TMEM136 (11760407_x_at) / Fold change /veh TMEM136 (11760407_x_at) / RFU CLDN22 /// WWC2 (11732394_at) / Fold change /veh CLDN22 /// WWC2 (11732394_at) / RFU HLA-DPB1 (11760878_x_at) / Fold change /veh HLA-DPB1 (11760878_x_at) / RFU SPINT1 (11716480_a_at) / Fold change /veh SPINT1 (11716480_a_at) / RFU GAP43 (11754022_s_at) / Fold change /veh GAP43 (11754022_s_at) / RFU A4GNT (11735810_at) / Fold change /veh A4GNT (11735810_at) / RFU PRB3 (11715151_x_at) / Fold change /veh PRB3 (11715151_x_at) / RFU TUBB4B (11761932_at) / Fold change /veh TUBB4B (11761932_at) / RFU CAPN14 (11732068_a_at) / Fold change /veh CAPN14 (11732068_a_at) / RFU TMCC2 (11721928_a_at) / Fold change /veh TMCC2 (11721928_a_at) / RFU IRGQ (11745062_a_at) / Fold change /veh IRGQ (11745062_a_at) / RFU FAM174B (11720279_a_at) / Fold change /veh FAM174B (11720279_a_at) / RFU TMPRSS4 (11748680_a_at) / Fold change /veh TMPRSS4 (11748680_a_at) / RFU FAM212B (11763350_a_at) / Fold change /veh FAM212B (11763350_a_at) / RFU PLEKHG5 (11743358_a_at) / Fold change /veh PLEKHG5 (11743358_a_at) / RFU ZSCAN30 (11745921_a_at) / Fold change /veh ZSCAN30 (11745921_a_at) / RFU CMKLR1 (11741424_a_at) / Fold change /veh CMKLR1 (11741424_a_at) / RFU LOC101060620 /// MAPK8IP1 (11723275_at) / Fold change /veh LOC101060620 /// MAPK8IP1 (11723275_at) / RFU SPTSSB (11747773_x_at) / Fold change /veh SPTSSB (11747773_x_at) / RFU PRSS12 (11739890_at) / Fold change /veh PRSS12 (11739890_at) / RFU BIN1 (11741810_x_at) / Fold change /veh BIN1 (11741810_x_at) / RFU WNT11 (11732464_a_at) / Fold change /veh WNT11 (11732464_a_at) / RFU C10orf10 (11716521_a_at) / Fold change /veh C10orf10 (11716521_a_at) / RFU C5orf56 (11738089_at) / Fold change /veh C5orf56 (11738089_at) / RFU CYB561 (11721691_x_at) / Fold change /veh CYB561 (11721691_x_at) / RFU ANKRD19P (11752326_a_at) / Fold change /veh ANKRD19P (11752326_a_at) / RFU OR2T12 /// OR2T33 /// OR2T8 (11738714_s_at) / Fold change /veh OR2T12 /// OR2T33 /// OR2T8 (11738714_s_at) / RFU VCAN (11748164_a_at) / Fold change /veh VCAN (11748164_a_at) / RFU JSRP1 (11732532_at) / Fold change /veh JSRP1 (11732532_at) / RFU KRTAP10-11 (11738290_x_at) / Fold change /veh KRTAP10-11 (11738290_x_at) / RFU MYO3A (11730013_a_at) / Fold change /veh MYO3A (11730013_a_at) / RFU EBF3 (11725865_a_at) / Fold change /veh EBF3 (11725865_a_at) / RFU CAMK2N1 (11719241_x_at) / Fold change /veh CAMK2N1 (11719241_x_at) / RFU C5orf56 (11738088_a_at) / Fold change /veh C5orf56 (11738088_a_at) / RFU OLFML3 (11715873_a_at) / Fold change /veh OLFML3 (11715873_a_at) / RFU LOC100653217 /// NTM (11731650_a_at) / Fold change /veh LOC100653217 /// NTM (11731650_a_at) / RFU MAPK11 (11762145_a_at) / Fold change /veh MAPK11 (11762145_a_at) / RFU FIZ1 (11724087_x_at) / Fold change /veh FIZ1 (11724087_x_at) / RFU OASL (11726364_x_at) / Fold change /veh OASL (11726364_x_at) / RFU SOX15 (11748057_x_at) / Fold change /veh SOX15 (11748057_x_at) / RFU CD79A (11719716_a_at) / Fold change /veh CD79A (11719716_a_at) / RFU HIST1H1D (11736915_at) / Fold change /veh HIST1H1D (11736915_at) / RFU CASKIN2 (11723855_a_at) / Fold change /veh CASKIN2 (11723855_a_at) / RFU LOC730098 (11760151_x_at) / Fold change /veh LOC730098 (11760151_x_at) / RFU OR4N2 (11742367_at) / Fold change /veh OR4N2 (11742367_at) / RFU PRRT2 (11749266_a_at) / Fold change /veh PRRT2 (11749266_a_at) / RFU SNX32 (11753110_a_at) / Fold change /veh SNX32 (11753110_a_at) / RFU CDHR5 (11726645_a_at) / Fold change /veh CDHR5 (11726645_a_at) / RFU RCAN1 (11760418_a_at) / Fold change /veh RCAN1 (11760418_a_at) / RFU FAM167A (11723789_a_at) / Fold change /veh FAM167A (11723789_a_at) / RFU FAM26E (11764081_at) / Fold change /veh FAM26E (11764081_at) / RFU ISYNA1 (11749810_s_at) / Fold change /veh ISYNA1 (11749810_s_at) / RFU ACY1 (11761880_at) / Fold change /veh ACY1 (11761880_at) / RFU 11764098_at / Fold change /veh 11764098_at / RFU SAMD14 (11745864_x_at) / Fold change /veh SAMD14 (11745864_x_at) / RFU NPB (11741838_a_at) / Fold change /veh NPB (11741838_a_at) / RFU TMPRSS6 (11731388_a_at) / Fold change /veh TMPRSS6 (11731388_a_at) / RFU KRTAP10-2 (11738614_at) / Fold change /veh KRTAP10-2 (11738614_at) / RFU ARHGAP8 /// PRR5-ARHGAP8 (11727945_x_at) / Fold change /veh ARHGAP8 /// PRR5-ARHGAP8 (11727945_x_at) / RFU KRTAP5-7 /// NADSYN1 (11734609_at) / Fold change /veh KRTAP5-7 /// NADSYN1 (11734609_at) / RFU RASL12 (11751679_a_at) / Fold change /veh RASL12 (11751679_a_at) / RFU CDKN2B (11736163_a_at) / Fold change /veh CDKN2B (11736163_a_at) / RFU PRF1 (11729649_at) / Fold change /veh PRF1 (11729649_at) / RFU, ZNF638 /// ZNF638-IT1 / Fold change vs veh, ZNF638 /// ZNF638-IT1 / RFU, PANK3 / Fold change vs veh, PANK3 / RFU, SH3YL1 / Fold change vs veh, SH3YL1 / RFU, ZEB2 / Fold change vs veh, ZEB2 / RFU, NRIP1 / Fold change vs veh, NRIP1 / RFU, PTTG1IP / Fold change vs veh, PTTG1IP / RFU, CAPN2 / Fold change vs veh, CAPN2 / RFU, MED14 / Fold change vs veh, MED14 / RFU, SNORA58 / Fold change vs veh, SNORA58 / RFU, C1orf63 / Fold change vs veh, C1orf63 / RFU, LRRFIP1 / Fold change vs veh, LRRFIP1 / RFU, NDUFAF7 / Fold change vs veh, NDUFAF7 / RFU, SLC12A2 / Fold change vs veh, SLC12A2 / RFU, IBTK / Fold change vs veh, IBTK / RFU, ESF1 / Fold change vs veh, ESF1 / Fold change vs veh, TMEM50B / RFU, TAOK1 / Fold change vs veh, TAOK1 / RFU, ACBD3 / Fold change vs veh, ACBD3 / RFU, TMA16 / Fold change vs veh, TMA16 / RFU, RWDD3 / Fold change vs veh, RWDD3 / RFU, BCAT1 / Fold change vs veh, BCAT1 / RFU, EDEM3 / Fold change vs veh, EDEM3 / RFU, TMEM33 / Fold change vs veh, TMEM33 / RFU, WDR75 / Fold change vs veh, WDR75 / RFU, AHCTF1 / Fold change vs veh, AHCTF1 / RFU, TFRC / Fold change vs veh, TFRC / RFU, ZDHHC17 / Fold change vs veh, ZDHHC17 / RFU, NOM1 / Fold change vs veh, NOM1 / RFU, ARL8B / Fold change vs veh, ARL8B / RFU, ZBTB11 / Fold change vs veh, ZBTB11 / RFU, TAMM41 / Fold change vs veh, TAMM41 / RFU, KIAA1704 /// LOC100996395 / Fold change vs veh, KIAA1704 /// LOC100996395 / RFU, ING1 / Fold change vs veh, ING1 / RFU, TRMT61B / Fold change vs veh, TRMT61B / RFU, FUBP3 / Fold change vs veh, FUBP3 / RFU, TP53 / Fold change vs veh, TP53 / RFU, TNKS2 / Fold change vs veh, TNKS2 / RFU, ZFP14 / Fold change vs veh, ZFP14 / RFU, ACTR2 / Fold change vs veh, ACTR2 / RFU, PPP3R1 / Fold change vs veh, PPP3R1 / RFU, PIK3R1 / Fold change vs veh, PIK3R1 / RFU, HNRNPA1 / Fold change vs veh, HNRNPA1 / RFU, RNF170 / Fold change vs veh, RNF170 / RFU, ZNF28 / Fold change vs veh, ZNF28 / RFU, RNGTT / Fold change vs veh, RNGTT / RFU, OGT / Fold change vs veh, OGT / RFU, BRD1 / Fold change vs veh, BRD1 / RFU, MARS / Fold change vs veh, MARS / RFU, ZNF655 / Fold change vs veh, ZNF655 / RFU, FAHD1 / Fold change vs veh, FAHD1 / RFU, BDP1 / Fold change vs veh, BDP1 / RFU, LRRCC1 / Fold change vs veh, LRRCC1 / RFU, ARID1A / Fold change vs veh, ARID1A / RFU, ZNF146 / Fold change vs veh, ZNF146 / RFU, ZNF330 / Fold change vs veh, ZNF330 / RFU, GPN3 / Fold change vs veh, GPN3 / RFU, C9orf123 / Fold change vs veh, C9orf123 / RFU, N4BP2L2 / Fold change vs veh, N4BP2L2 / RFU, ARFIP1 / Fold change vs veh, ARFIP1 / RFU, FAM179B / Fold change vs veh, FAM179B / RFU, BCL10 / Fold change vs veh, BCL10 / RFU, UHRF1BP1L / Fold change vs veh, UHRF1BP1L / RFU, BET1 / Fold change vs veh, BET1 / RFU, CNOT2 / Fold change vs veh, CNOT2 / RFU, ZNF268 / Fold change vs veh, ZNF268 / Fold change vs veh, ZNF507 / RFU, DGCR2 / Fold change vs veh, DGCR2 / RFU, WDSUB1 / Fold change vs veh, WDSUB1 / Fold change vs veh, HSP90B1 /// MIR3652 / RFU, ADSS / Fold change vs veh, ADSS / RFU, GK / Fold change vs veh, GK / RFU, ZNF148 / Fold change vs veh, ZNF148 / RFU, TAF9 / Fold change vs veh, TAF9 / RFU, SLC1A5 / Fold change vs veh, SLC1A5 / RFU, SLMO2 / Fold change vs veh, SLMO2 / RFU, ABCC4 / Fold change vs veh, ABCC4 / RFU, LOC101060439 /// RAP1B / Fold change vs veh, LOC101060439 /// RAP1B / RFU, RFX7 / Fold change vs veh, RFX7 / RFU, GTPBP10 / Fold change vs veh, GTPBP10 / RFU, CNEP1R1 / Fold change vs veh, CNEP1R1 / RFU, BIVM-ERCC5 /// ERCC5 / Fold change vs veh, BIVM-ERCC5 /// ERCC5 / RFU, ILF3 / Fold change vs veh, ILF3 / RFU 11762660_at / Fold change /veh 11762660_at / RFU VCAN (11757783_s_at) / Fold change /veh VCAN (11757783_s_at) / RFU DDX43 (11728927_at) / Fold change /veh DDX43 (11728927_at) / RFU KRT8 (11758188_x_at) / Fold change /veh KRT8 (11758188_x_at) / RFU NKD1 (11759106_at) / Fold change /veh NKD1 (11759106_at) / RFU SRD5A1 (11742802_a_at) / Fold change /veh SRD5A1 (11742802_a_at) / RFU TPSAB1 /// TPSB2 (11721975_s_at) / Fold change /veh TPSAB1 /// TPSB2 (11721975_s_at) / RFU GSTM3 (11746129_a_at) / Fold change /veh GSTM3 (11746129_a_at) / RFU IL23R (11737362_x_at) / Fold change /veh IL23R (11737362_x_at) / RFU TMEM51 (11727254_a_at) / Fold change /veh TMEM51 (11727254_a_at) / RFU PIWIL2 (11732686_x_at) / Fold change /veh PIWIL2 (11732686_x_at) / RFU ORM1 (11744905_x_at) / Fold change /veh ORM1 (11744905_x_at) / RFU CCDC152 (11743942_at) / Fold change /veh CCDC152 (11743942_at) / RFU ECM1 (11717891_a_at) / Fold change /veh ECM1 (11717891_a_at) / RFU IL23R (11748794_a_at) / Fold change /veh IL23R (11748794_a_at) / RFU TNFAIP8L3 (11732012_x_at) / Fold change /veh TNFAIP8L3 (11732012_x_at) / RFU MBOAT4 (11741988_at) / Fold change /veh MBOAT4 (11741988_at) / RFU 11764193_at / Fold change /veh 11764193_at / RFU TMEM53 (11763286_at) / Fold change /veh TMEM53 (11763286_at) / RFU MAGEB2 (11727129_at) / Fold change /veh MAGEB2 (11727129_at) / RFU TMEM200A (11744735_a_at) / Fold change /veh TMEM200A (11744735_a_at) / RFU CCDC152 (11751479_a_at) / Fold change /veh CCDC152 (11751479_a_at) / RFU FAM211A (11726209_a_at) / Fold change /veh FAM211A (11726209_a_at) / RFU RGS16 (11746705_a_at) / Fold change /veh RGS16 (11746705_a_at) / RFU VCAN (11755009_s_at) / Fold change /veh VCAN (11755009_s_at) / RFU RHOB (11743442_s_at) / Fold change /veh RHOB (11743442_s_at) / RFU RGS16 (11720943_a_at) / Fold change /veh RGS16 (11720943_a_at) / RFU RGS16 (11720944_at) / Fold change /veh RGS16 (11720944_at) / RFU, VPS4B / Fold change vs veh, VPS4B / RFU, CREB1 / Fold change vs veh, CREB1 / RFU, DNAJC13 / Fold change vs veh, DNAJC13 / RFU, GNAQ / Fold change vs veh, GNAQ / RFU, CDK5R1 / Fold change vs veh, CDK5R1 / RFU, ZRANB3 / Fold change vs veh, ZRANB3 / RFU, CUL4A / Fold change vs veh, CUL4A / RFU, CCNY / Fold change vs veh, CCNY / RFU, UFL1 / Fold change vs veh, UFL1 / RFU, COG3 / Fold change vs veh, COG3 / RFU, DIAPH2 / Fold change vs veh, DIAPH2 / RFU, SKA2 / Fold change vs veh, SKA2 / RFU, AFF3 / Fold change vs veh, AFF3 / RFU, LMF1 / Fold change vs veh, LMF1 / RFU, IPO11 / Fold change vs veh, IPO11 / RFU, DFFB / Fold change vs veh, DFFB / RFU, FOXP1 / Fold change vs veh, FOXP1 / RFU, CARD8 / Fold change vs veh, CARD8 / RFU, STRN3 / Fold change vs veh, STRN3 / RFU, ADK / Fold change vs veh, ADK / RFU, RASSF2 / Fold change vs veh, RASSF2 / RFU, WIPF1 / Fold change vs veh, WIPF1 / RFU, LARP1B / Fold change vs veh, LARP1B / RFU, RASA1 / Fold change vs veh, RASA1 / RFU, RB1 / Fold change vs veh, RB1 / RFU, PPFIA1 / Fold change vs veh, PPFIA1 / RFU, MAT2A / Fold change vs veh, MAT2A / RFU, CCT5 / Fold change vs veh, CCT5 / RFU, WDR92 / Fold change vs veh, WDR92 / RFU, CUX1 / Fold change vs veh, CUX1 / RFU, TTC7A / Fold change vs veh, TTC7A / RFU, TMEM135 / Fold change vs veh, TMEM135 / RFU, DEPTOR / Fold change vs veh, DEPTOR / RFU, CPM / Fold change vs veh, CPM / RFU, DNAJB6 / Fold change vs veh, DNAJB6 / RFU, CACNA2D3 / Fold change vs veh, CACNA2D3 / RFU, DTX4 / Fold change vs veh, DTX4 / RFU, TFCP2 / Fold change vs veh, TFCP2 / RFU, GMCL1 /// GMCL1P1 / Fold change vs veh, GMCL1 /// GMCL1P1 / RFU, AEBP2 / Fold change vs veh, AEBP2 / RFU, SNHG1 /// SNORD22 /// SNORD25 /// SNORD26 /// SNORD27 /// SNORD28 /// SNORD29 /// SNORD31 / Fold change vs veh, SNHG1 /// SNORD22 /// SNORD25 /// SNORD26 /// SNORD27 /// SNORD28 /// SNORD29 /// SNORD31 / Fold change (Aza/veh), C12orf56 (ProbeSet 11735607_a_at) / Fold change (ACY-1035/veh), C12orf56 (ProbeSet 11735607_a_at) / Fold change (Aza/veh), FGFR1OP (ProbeSet 11751329_s_at) / Fold change (ACY-1035/veh), FGFR1OP (ProbeSet 11751329_s_at) / Fold change (Aza/veh), VPS36 (ProbeSet 11739960_a_at) / Fold change (ACY-1035/veh), VPS36 (ProbeSet 11739960_a_at) / RFU SYPL1 (11715823_x_at) / Fold change /veh SYPL1 (11715823_x_at) / RFU IGFBP7 (11715501_s_at) / Fold change /veh IGFBP7 (11715501_s_at) / RFU REEP3 (11722064_at) / Fold change /veh REEP3 (11722064_at) / RFU IGLL1 (11728026_x_at) / Fold change /veh IGLL1 (11728026_x_at): dose or concentration left out as unconfirmed. The note with it: MV-4-11 cells, 48 hours.

We go through one compound from PMC5218480 (PLoS ONE, 2017).

The structures appear in SMILES notation.

`Nc1ncn([C@@H]2O[C@H](CO)[C@@H](O)[C@H]2O)c(=O)n1` [azacitidine]: the “Fold change /veh TMEM51 (11727254_a_at)” value stood at 1.21.
